Measurements published in ChEMBL document CHEMBL1201862, “PubChem BioAssay data set” (2004).
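How tested: cells in 96-well plates exposed to compound for 48 hours at five concentrations. At the GI50, growth is halved.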 The source made the active and inactive calls. Cut-off read from the data, not from the text of the source: active = GI50 up to about 1.1 µM and inactive = higher.

Legend:
Experiment in all cases: NCI anticancer screen, dose series, 48 h
OVCAR-8 = system: OVCAR-8
OVCAR-3 = system: OVCAR-3
SK-OV-3 = system: SK-OV-3
NCI-H460 = system: NCI-H460
ACHN = system: ACHN
DMS-273 = system: DMS-273
NCI-H522 = system: NCI-H522
SW-620 = system: SW-620
UACC-257 = system: UACC-257
U-251 = system: U-251
SK-MEL-5 = system: SK-MEL-5
HCT-15 = system: HCT-15
KM-20L2 = system: KM-20L2
SNB-78 = system: SNB-78
XF498 = system: XF498
HL-60 = system: HL-60
SR = system: SR
M14 = system: M14
IGROV-1 = system: IGROV-1
A549 = system: A549
SN12C = system: SN12C
LOX IMVI = system: LOX IMVI
OVCAR-5 = system: OVCAR-5
786-0 = system: 786-0
NCI-H226 = system: NCI-H226
K562 = system: K562
OVCAR-4 = system: OVCAR-4
M19-MEL = system: M19-MEL
SF-295 = system: SF-295
HOP-62 = system: HOP-62
HCT-116 = system: HCT-116
SNB-75 = system: SNB-75
SK-MEL-2 = system: SK-MEL-2
COLO 205 = system: COLO 205
CCRF-CEM = system: CCRF-CEM
Malme-3M = system: Malme-3M
HCC 2998 = system: HCC 2998
TK-10 = system: TK-10
EKVX = system: EKVX
DLD-1 = system: DLD-1
RPMI-8226 = system: RPMI-8226
SF-268 = system: SF-268
A498 = system: A498
KM12 = system: KM12
LXFL 529 = system: LXFL 529
SK-MEL-28 = system: SK-MEL-28
NCI-H23 = system: NCI-H23
MOLT-4 = system: MOLT-4
HT-29 = system: HT-29
RXF 393 = system: RXF 393
CAKI-1 = system: CAKI-1
UACC-62 = system: UACC-62
HOP-18 = system: HOP-18
UO-31 = system: UO-31
DMS-114 = system: DMS-114
HOP-92 = system: HOP-92
SF-539 = system: SF-539

## CC(/C=C/c1ccccc1)=N\N=C(C)\C=C\c1ccccc1
OVCAR-8
  GI50: > 100 µM (inactive)
OVCAR-3
  GI50: > 100 µM (inactive)
SK-OV-3
  GI50: > 100 µM (inactive)
NCI-H460
  GI50: > 100 µM (inactive)
ACHN
  GI50: > 100 µM (inactive)
DMS-273
  GI50: > 100 µM (inactive)
NCI-H522
  GI50: > 100 µM (inactive)
SW-620
  GI50: > 100 µM (inactive)
UACC-257
  GI50: > 100 µM (inactive)
U-251
  GI50: > 100 µM (inactive)
SK-MEL-5
  GI50: > 100 µM (inactive)
HCT-15
  GI50: > 100 µM
KM-20L2
  GI50: > 100 µM (inactive)
SNB-78
  GI50: > 100 µM (inactive)
XF498
  GI50: > 100 µM (inactive)
HL-60
  GI50: > 100 µM (inactive)
SR
  GI50: > 100 µM (inactive)
M14
  GI50: > 100 µM (inactive)
IGROV-1
  GI50: > 100 µM (inactive)
A549
  GI50: > 100 µM (inactive)
SN12C
  GI50: > 100 µM (inactive)
LOX IMVI
  GI50: > 100 µM (inactive)
OVCAR-5
  GI50: > 100 µM (inactive)
786-0
  GI50: > 100 µM (inactive)
NCI-H226
  GI50: > 100 µM (inactive)
K562
  GI50: > 100 µM (inactive)
OVCAR-4
  GI50: > 100 µM (inactive)
M19-MEL
  GI50: > 100 µM (inactive)
SF-295
  GI50: > 100 µM (inactive)
HOP-62
  GI50: > 100 µM (inactive)
HCT-116
  GI50: > 100 µM (inactive)
SNB-75
  GI50: 42.2 µM (inactive)
SK-MEL-2
  GI50: > 100 µM (inactive)
COLO 205
  GI50: > 10 µM (inactive)
CCRF-CEM
  GI50: > 100 µM (inactive)
Malme-3M
  GI50: > 100 µM (inactive)
HCC 2998
  GI50: > 100 µM (inactive)
TK-10
  GI50: > 100 µM (inactive)
EKVX
  GI50: > 100 µM (inactive)
DLD-1
  GI50: > 100 µM (inactive)
RPMI-8226
  GI50: > 100 µM (inactive)
SF-268
  GI50: > 100 µM (inactive)
A498
  GI50: > 100 µM (inactive)
KM12
  GI50: > 100 µM (inactive)
LXFL 529
  GI50: > 100 µM (inactive)
SK-MEL-28
  GI50: > 100 µM (inactive)
NCI-H23
  GI50: > 100 µM (inactive)
MOLT-4
  GI50: > 100 µM (inactive)
HT-29
  GI50: > 100 µM (inactive)

## COP(=O)(CC(=O)C1OC(C)(C)OC1C(O)COCc1ccccc1)OC (stereo not drawn)
OVCAR-8
  GI50: > 100 µM (inactive)
OVCAR-3
  GI50: > 100 µM (inactive)
NCI-H460
  GI50: > 100 µM (inactive)
ACHN
  GI50: > 100 µM (inactive)
RXF 393
  GI50: > 100 µM (inactive)
DMS-273
  GI50: > 100 µM (inactive)
SW-620
  GI50: > 100 µM (inactive)
UACC-257
  GI50: > 100 µM (inactive)
U-251
  GI50: > 100 µM (inactive)
SK-MEL-5
  GI50: 46.2 µM (inactive)
HCT-15
  GI50: > 100 µM
KM-20L2
  GI50: > 100 µM (inactive)
SNB-78
  GI50: > 100 µM (inactive)
HL-60
  GI50: > 100 µM (inactive)
SR
  GI50: > 100 µM (inactive)
M14
  GI50: > 100 µM (inactive)
IGROV-1
  GI50: > 100 µM (inactive)
A549
  GI50: > 100 µM (inactive)
SN12C
  GI50: > 100 µM (inactive)
CAKI-1
  GI50: > 100 µM (inactive)
LOX IMVI
  GI50: > 100 µM (inactive)
OVCAR-5
  GI50: > 100 µM (inactive)
786-0
  GI50: > 100 µM (inactive)
NCI-H226
  GI50: > 100 µM (inactive)
K562
  GI50: > 100 µM (inactive)
OVCAR-4
  GI50: > 100 µM (inactive)
M19-MEL
  GI50: > 100 µM (inactive)
SF-295
  GI50: > 100 µM (inactive)
HOP-62
  GI50: > 100 µM (inactive)
HCT-116
  GI50: > 100 µM (inactive)
UACC-62
  GI50: > 100 µM (inactive)
SNB-75
  GI50: > 100 µM (inactive)
SK-MEL-2
  GI50: > 100 µM (inactive)
COLO 205
  GI50: > 100 µM (inactive)
CCRF-CEM
  GI50: > 100 µM (inactive)
Malme-3M
  GI50: > 100 µM (inactive)
HOP-18
  GI50: > 100 µM (inactive)
HCC 2998
  GI50: > 100 µM (inactive)
TK-10
  GI50: > 100 µM (inactive)
EKVX
  GI50: > 100 µM (inactive)
UO-31
  GI50: > 100 µM (inactive)
DLD-1
  GI50: > 100 µM (inactive)
RPMI-8226
  GI50: > 100 µM (inactive)
SF-268
  GI50: > 100 µM (inactive)
A498
  GI50: > 100 µM (inactive)
KM12
  GI50: > 100 µM (inactive)
LXFL 529
  GI50: > 100 µM (inactive)
SK-MEL-28
  GI50: > 100 µM (inactive)
DMS-114
  GI50: > 100 µM (inactive)
NCI-H23
  GI50: > 100 µM (inactive)
HOP-92
  GI50: > 100 µM (inactive)
MOLT-4
  GI50: > 100 µM (inactive)
SF-539
  GI50: > 100 µM (inactive)
HT-29
  GI50: > 100 µM (inactive)
